Results reported in the NIST ThermoML archive (doi:10.1021/je030132i).

Experiment: xn = mol fraction of the nth substance listed
Conditions: 101.3 kPa, Liquid; for viscosity: Capillary tube (Ostwald / Ubbelohde) method; for mass density: Vibrating tube method

CC(O)CNCC(C)O (configuration not stated) [N-(2-hydroxypropyl)-2-hydroxy-1-propanamine] + O
Conditions	mass density [kg/m3]	viscosity [mPa·s]
298.15 K, x1 = 0.02	1005.22	1.645
298.15 K, x1 = 0.0498	1015.93	3.723
298.15 K, x1 = 0.0701	1021.72	6.06
298.15 K, x1 = 0.1001	1027.13	11.55
298.15 K, x1 = 0.1999	1030.9	55.69
298.15 K, x1 = 0.3006	1027.13	166.1
298.15 K, x1 = 0.3963	1022.42	338.7
298.15 K, x1 = 0.5012	1017.79	613
298.15 K, x1 = 0.5957	1014.09	861
298.15 K, x1 = 0.7034	1010.66	1142
298.15 K, x1 = 0.8029	1008.07	1326
298.15 K, x1 = 0.9016	1006.28	1478
313.15 K, x1 = 0.02	999.64	1.112
313.15 K, x1 = 0.0498	1008.66	2.218
313.15 K, x1 = 0.0701	1013.2	3.335
313.15 K, x1 = 0.1001	1017.4	5.56
313.15 K, x1 = 0.1999	1019.77	20.63
313.15 K, x1 = 0.3006	1016.15	46.9
313.15 K, x1 = 0.3963	1011.45	87.7
313.15 K, x1 = 0.5012	1006.84	139.1
313.15 K, x1 = 0.5957	1003.2	184.6
313.15 K, x1 = 0.7034	999.62	229.9
313.15 K, x1 = 0.8029	997.1	264.6
313.15 K, x1 = 0.9016	995.03	290.7
318.65 K, x1 = 0.02	997.52	0.992
318.65 K, x1 = 0.0498	1006.43	1.914
318.65 K, x1 = 0.0701	1010.34	2.776
318.65 K, x1 = 0.1001	1014	4.6
318.65 K, x1 = 0.1999	1015.54	15.21
318.65 K, x1 = 0.3006	1011.9	32.42
318.65 K, x1 = 0.3963	1007.24	58.7
318.65 K, x1 = 0.5012	1002.82	88.1
318.65 K, x1 = 0.5957	999.15	114.5
318.65 K, x1 = 0.7034	995.55	140
318.65 K, x1 = 0.8029	993.04	159.5
318.65 K, x1 = 0.9016	990.99	174.2
318.65 K, x1 = 1	988.22	186.6
323.15 K, x1 = 0.02	995.02	0.907
323.15 K, x1 = 0.0498	1003.09	1.684
323.15 K, x1 = 0.0701	1006.95	2.408
323.15 K, x1 = 0.1001	1010.46	3.78
323.15 K, x1 = 0.1999	1012.04	12.06
323.15 K, x1 = 0.3006	1008.24	24.56
323.15 K, x1 = 0.3963	1003.75	42.8
323.15 K, x1 = 0.5012	999.39	63.37
323.15 K, x1 = 0.5957	995.71	79.93
323.15 K, x1 = 0.7034	992.23	96.22
323.15 K, x1 = 0.8029	989.58	108.7
323.15 K, x1 = 0.9016	987.51	118
323.15 K, x1 = 1	984.9	125.7
333.15 K, x1 = 0.02	989.76	0.733
333.15 K, x1 = 0.0498	996.93	1.355
333.15 K, x1 = 0.0701	1000.34	1.816
333.15 K, x1 = 0.1001	1003.16	2.719
333.15 K, x1 = 0.1999	1004.03	7.5
333.15 K, x1 = 0.3006	1000.17	14.15
333.15 K, x1 = 0.3963	995.77	22.89
333.15 K, x1 = 0.5012	991.52	32.12
333.15 K, x1 = 0.5957	987.88	39.31
333.15 K, x1 = 0.7034	984.45	46.32
333.15 K, x1 = 0.8029	981.79	51.38
333.15 K, x1 = 0.9016	979.72	55.03
333.15 K, x1 = 1	977.3	57.99
343.15 K, x1 = 0.02	983.93	0.621
343.15 K, x1 = 0.0498	990.37	1.061
343.15 K, x1 = 0.0701	993.22	1.412
343.15 K, x1 = 0.1001	995.55	2.042
343.15 K, x1 = 0.1999	995.78	5.05
343.15 K, x1 = 0.3006	991.86	8.7
343.15 K, x1 = 0.3963	987.44	13.34
343.15 K, x1 = 0.5012	983.33	17.88
343.15 K, x1 = 0.5957	979.75	21.19
343.15 K, x1 = 0.7034	976.35	24.42
343.15 K, x1 = 0.8029	973.95	26.64
343.15 K, x1 = 0.9016	971.72	28.29
343.15 K, x1 = 1	969.58	29.55
